Experimental data published in ChEMBL document CHEMBL6177972 (J Nat Prod, 2025).

Assays:
Format in all cases: functional, cell-based
K562 = experiment: Anticancer activity against human K562 cells assessed as cell growth inhibition incubated for 4 days by MTT assay; conditions: K562, 96 h
[1] = Anticancer activity against human MM649 cells assessed as cell growth inhibition incubated for 4 days by MTT assay; conditions: MM649, 96 h
HeLa = experiment: Anticancer activity against human HeLa cells assessed as cell growth inhibition incubated for 4 days by MTT assay; conditions: 96 h

IC50 (K562)	IC50 (HeLa)	SMILES	IC50 [1]
15.6 µM	4.2 µM	CCCCCCCCCCCCC[C@H]1C[C@H](O)C[C@@]2(C[C@@H]3OC(=O)C=C[C@@H]3O2)O1	2.7 µM
13.5 µM	4.5 µM	CC(=O)O[C@H]1C[C@H](CCCCCCCCc2ccc3c(c2)OCO3)O[C@@]2(C1)C[C@@H]1OC(=O)C=C[C@@H]1O2	3.9 µM
10.5 µM	2.3 µM	CCCCCCCCCCCCC[C@H]1C[C@H](OC(C)=O)C[C@@]2(C[C@@H]3OC(=O)C=C[C@@H]3O2)O1	1.9 µM
25.1 µM	13.6 µM	O=C1C=C[C@@H]2O[C@]3(C[C@@H](O)C[C@H](CCCCCCCCc4ccc5c(c4)OCO5)O3)C[C@@H]2O1	10.8 µM
20.3 µM	5.1 µM	CCCCCCCCCCCCC[C@H](O)C[C@H]1C[C@H](O)C[C@@]2(C[C@@H]3OC(=O)C=C[C@@H]3O2)O1	3.3 µM
11.9 µM	3.9 µM	CCCCCCCCCCCCC[C@H]1CC(=O)C[C@@]2(C[C@@H]3OC(=O)C=C[C@@H]3O2)O1	3.1 µM

The remaining lines, values behind:

SMILES	IC50 (K562)	IC50 (HeLa)	IC50 [1]
CC(=O)O[C@H]1C[C@H](C[C@@H](O)CCCCCCCCc2ccc3c(c2)OCO3)O[C@@]2(C1)C[C@@H]1OC(=O)C=C[C@@H]1O2	39.6 µM	27.1 µM	24.5 µM
O=C1C=C[C@@H]2O[C@]3(C[C@@H](O)C[C@H](C[C@@H](O)CCCCCCCCc4ccc5c(c4)OCO5)O3)C[C@@H]2O1	25.8 µM	18.1 µM	14.9 µM
COc1cccc2c1C(=O)c1c(O)c3c(c(O)c1C2=O)C[C@@](O)(C(=O)CO)C[C@@H]3O[C@H]1C[C@H](N)[C@H](O)[C@H](C)O1 [DOXORUBICIN]	0.12 µM		0.05 µM
O=C1C[C@H](CCCCCCCCc2ccc3c(c2)OCO3)O[C@@]2(C1)C[C@@H]1OC(=O)C=C[C@@H]1O2	16.6 µM	5.9 µM	5.9 µM
O=C1C=C[C@H](O)[C@H](CCCCCCCCc2ccc3c(c2)OCO3)O1	13.6 µM	5.6 µM	7.6 µM
